# Measurements taken from a melting point compilation (Tetko et al.; mined from patent text by program, amines drawn as free bases though some values may be those of a salt).
row,SMILES,melting point [°C]
1,CCCCCCCCCCCCCCCCCCOc1cc(OCCCOc2ccc(S(C)(=O)=O)cc2)cc(N(CC(=O)O)CC(=O)O)c1,118 to 120
2,c1cc2c(Nc3ccc4[nH]ccc4c3)ncnc2cn1,265
3,Cc1cc2c(-c3ccccc3)noc2c2c1OC(CO)C2 (stereo unspecified),130 to 133
4,CC(C)CNCc1ccc(S(=O)(=O)c2ccc(S(N)(=O)=O)s2)cc1,198 to 200
5,CC(=O)ON=C(c1ccc(OC(C)=O)cc1O)c1ccccc1F,132 to 134
6,CCn1c(=O)sc2cc([N+](=O)[O-])ccc21,200 to 203
7,CC(=O)Nc1ccc(C(=O)NC2CCN(C3CCCCC3)C2)cc1 (stereo unspecified),184 to 186
8,O=C(Nc1cccc2c(-n3ccnc3)c(CO)cnc12)c1c(Cl)cccc1Cl,205 to 207
9,CS(=O)c1cc(Cl)c(C=O)c(Cl)c1 (stereo unspecified),100 to 102
10,CCOC(=O)c1cc2cccc(N(CC)S(=O)(=O)c3cccs3)c2[nH]1,124 to 125
11,O=c1c2ccc(O)cc2[nH]c2c([N+](=O)[O-])ccc(Cl)c12,292 to 294
12,CC(=O)O[C@@H](C)C(=O)Nc1c(C(=O)c2cc(C)ccn2)[nH]c2cc(Cl)ccc12,213 to 214
13,CCOC(=O)COC(=O)c1cc(-n2nc3ccc(Cl)cn3c2=O)c(F)cc1Cl,62 to 65
14,COc1ccc(Cn2cnc3c(-c4ccco4)ncnc32)cc1,175 to 176
15,O=C(CCCCCc1cccc2cncn12)NO,138 to 140
16,CN(CCCCCCCC(F)(F)C(F)(F)F)CCCCCC1Cc2cc(O)ccc2C2C(F)CC3(C)C(O)CCC3C12 (stereo unspecified),11
17,O=Cc1c2n(c3ccc(Cl)cc13)CCC2,179 to 180
18,CCOC(=O)c1cn2c3c(c(F)c(F)cc3c1=O)OCC2COC(=O)c1cc([N+](=O)[O-])cc([N+](=O)[O-])c1 (stereo unspecified),240 to 242
19,CCCCCC(=O)OCC(=O)C1CC2c3cccc4[nH]cc(c34)CC2N(C)C1 (stereo unspecified),135 to 137
20,Cn1c(=O)n(Cc2cccnc2)c2ccccc21,90
21,CCc1cc(-c2ccncc2)cc(CC)c1C(C(N)=O)C(N)=O,184 to 186
22,O=C1C=CC(O)(c2nc3ccccc3s2)C=C1,63 to 66
23,N#Cc1ccccc1C(=O)c1ccccc1S,94
24,N#CCn1nc2n(c1=O)-c1ccc(Cl)nc1C(c1ccccc1Cl)=NC2,198 to 200
25,COc1cc2cn(-c3c(C)c(C)c4c(c3C)C(c3ccc(C)cc3)C(C)(C)O4)cc2cc1OC (stereo unspecified),146 to 147
26,C=CCOc1ccc(C#N)c(Cl)c1,50 to 52

row,SMILES,melting point [°C]
1,CCOC(=O)c1cc2cc(-c3ccc(C(C)=NO)cc3)ccc2o1,220 to 222
2,O=C(NC1CCN(CCc2[nH]c(=O)[nH]c2-c2ccc(F)cc2)CC1)c1ccccc1,218 to 220
3,N#CCCNC(=O)c1cc(F)cc(-c2cccc3cc(Cc4cc(F)cc(Cl)c4)sc23)c1,113 to 114
4,C[C@H](Cn1nnc2ccccc21)n1cnc2cc3c(=O)n(C4CC4)nnc3cc2c1=O,103 to 105
5,CC(=O)N(c1nc(N)no1)c1c(Cl)cccc1Cl,164 to 165
6,CCCOc1ccc(-c2ccc(=O)[nH]n2)cc1OC,186
7,COc1cccc(OC)c1C(=O)Nc1cccc2c1CCN(C)C2,191 to 192
8,CC1(C(=O)Nc2ccc(S(C)(=O)=O)c(C(F)(F)F)c2)CC1,135 to 138
9,CNc1cc(F)ccc1C(=O)CS(=O)(=O)NC,140 to 142
10,COc1ccc(/C(C)=C/C=C/C(=O)O)cc1,174 to 177
11,CC(=O)OC1CSC(Oc2cncc(-c3ccncc3C)c2)C(OC(C)=O)C1OC(C)=O (stereo unspecified),153 to 174
12,CC(COc1ccc(/C=C/C(=O)O)cc1)N(C)C (stereo unspecified),231
13,CCOCC(=NO)C(C)(C)NCC(Cn1ccnc1[N+](=O)[O-])ONC(C)(C)C(CCn1ccnc1[N+](=O)[O-])=NO (stereo unspecified),105 to 107
14,C#CCNC(=NCCSCc1nccs1)NC#N,138 to 140
15,N#CC1CCCc2cc3c(nc21)CCCC3 (stereo unspecified),88 to 90
16,CC(C)(C)OC(=O)C(C)(C)N1COC(CCl)=C(c2ccccc2)C1=O,128 to 129
17,CCN(CC)CCN1C(=O)C(OC(C)=O)C(c2ccc(OC)cc2)Sc2c1ccc1ccccc21 (stereo unspecified),148 to 149
18,CC(C)n1nc(-c2cnc(N)nc2-c2ccccc2F)ccc1=O,239 to 240
19,COC(=O)c1c(-c2ccc3ccccc3c2)ccc2ccccc12,139 to 140
20,CC(C)(C)c1ccc(C(=O)Nc2cn3nc(N)ccc3n2)cc1,267 to 268
21,CSc1cccc(Nc2nc(OCC3CCCCC3)c3[nH]cnc3n2)c1,190 to 192
22,CC(CC(F)(F)F)C(N)=O (stereo unspecified),90.5 to 91.5
23,Cc1cc(-c2nnc3c4ccccc4c(OCc4ncc[nH]4)nn23)no1,188 to 189
24,CC(C)C(=O)Nc1csc(Br)n1,95
25,COc1cc(N)ccc1N1CCN(CCCNc2c(C)c(=O)n(C)c(=O)n2C)CC1,146 to 148
26,CCn1ncc2c(NCC3CCCCC3)c3cc(NC(C)=O)ccc3nc21,277 to 278

# Other lines, results leading:
row,melting point [°C],SMILES
1,44 to 45,CCCCCCCCCCCCCCCCCCSSSSCCCCCCCCCCCCCCCCCC
2,178 to 179,COc1ccc(Cn2ncn(-c3ccc(N4CCN([C@H](C)[C@](O)(Cn5cncn5)c5ccc(F)cc5F)CC4)cc3)c2=O)cc1
3,166 to 169,CN(C(=S)NC(=O)c1ccccc1)c1ccc(-c2ncn(-c3ccc(OC(F)(F)F)cc3)n2)cc1
4,85 to 87,Cc1ccc(C#Cc2cc3ccccc3s2)s1
5,192 to 194,CN(C)CCNC(=O)c1cn(C)c(=O)c2cc3ccccc3nc12
6,151 to 153,COc1c2c(cc3c1OCO3)C(O)CN(C)C2 (stereo unspecified)
7,89 to 90,CCOC(=O)c1cnc(NN)nc1C(F)(F)F
8,121 to 122,C=C(C)COc1ccc(F)cc1CN(CC)c1ccc(C(=O)O)nn1
9,167 to 169,CC(C)(C)c1cc(NC(=S)NCc2ccc(N)cc2)cc(C(C)(C)C)c1O
10,81 to 84,CCCCS(=O)(=O)Nc1ccc(CCCCOCCCCCCNCC(O)c2ccc(O)c(CO)c2)cc1 (stereo unspecified)
11,195 to 196,CCC(O)(CC(=O)OC(C)(C)C)c1cc2n(c(=O)c1COC(C)=O)Cc1cc3ccccc3nc1-2 (stereo unspecified)
12,230 to 232,CC(=O)Nc1ccc2c(c1)S(=O)(=O)NCN2C1CC1
13,78,O=C(O)CCOc1cccc(CCNC(=O)C2Cc3ccccc3N2S(=O)(=O)c2ccc(-c3cccc(C(F)(F)F)c3)cc2)c1 (stereo unspecified)
14,297 to 299,NS(=O)(=O)c1ccc(-c2[nH]c3ccc(Cl)cc3c2-c2ccccc2)cc1
15,190 to 191,COCC(=O)Nc1ccc2ncnc(Nc3cccc(Br)c3)c2c1
16,193 to 194,COc1cc2c(cc1OC(C)C)-c1c(-c3cccnc3)c3c(n1CC2)C(=O)N(C(C)(C)C)CCOC3
17,194 to 195,O=C1c2ccccc2-c2c1c1ccccc1c(=O)n2CCCCCNS(=O)(=O)c1ccccc1
18,147 to 149,NC(=O)c1cn(C(CO)c2ccccc2)cn1 (stereo unspecified)
19,115 to 118,CCCc1c(OCCCCCCc2cccc(OC)c2OC)ccc(C(=O)O)c1O
20,> 320,O=C(CN1CCCC1=O)Nc1ccc(-c2ncc(C(=O)O)c(O)n2)cc1
21,238 to 240,Cc1nc2ccc(C#N)cc2[nH]1
22,144 to 145,COC(=O)C1=C(O)c2c(c3cc(C)ccc3n2C)S(=O)(=O)N1C
23,150,CCc1cn(C2CC(O)(C(C)=O)C(CO)O2)c(=O)[nH]c1=O (stereo unspecified)
24,208,CNc1c2c(nc3ccc([N+](=O)[O-])cc13)CCCC2=O
25,81 to 83,CCCCCCC(C)(O)CCc1ccc(O)c(O)c1 (stereo unspecified)

row,melting point [°C],SMILES
1,118 to 120,C=CCOc1cc(N2C(=O)C3=C(CCCC3)C2=O)ccc1Cl
2,261,Cn1cc(C(=O)O)c(=O)c2c3ccc(F)c(N4CCN(c5cccc(C(F)(F)F)c5)CC4)c3ncc21
3,168 to 170,S=c1[nH]nc(Cc2ccccc2Nc2c(Cl)cccc2Cl)o1
4,147 to 149,CC1(C)CNc2cc3[nH]c(-c4ccncc4)nc3cc21
5,208,CC1(C)Oc2ccc(C(F)(F)F)cc2C(n2ccccc2=O)=C1CN(O)C(=O)C(F)(F)F
6,165 to 166,O=C(NCC(F)(F)F)c1ccccc1C(c1ccc(O)cc1)c1ccc(O)cc1
7,143 to 145,CN(C)C(=O)NCc1cccc2c1C(=O)N(C1CCC(=O)NC1=O)C2=O (stereo unspecified)
8,118 to 119,CS(=O)(=O)CCCCC(c1c(F)cccc1F)S(=O)(=O)c1ccc(Cl)cc1 (stereo unspecified)
9,213 to 214,N#Cc1ccc(C(=O)Nc2ccc(OCCN3CCOCC3)c3ccccc23)cc1
10,71 to 75,COC(=O)c1ccc(SC)nc1OC
11,246 to 247,CC1(C)CC(N2CCCC2)=CC(=C(C#N)C(O)C#N)C1 (stereo unspecified)
12,150 to 152,CC[C@H](COC)n1cc(Br)nc(N2CCc3cc(OC)c(F)c(Cl)c32)c1=O
13,160 to 161,N#CC(CC(=O)c1ccc(Cl)cc1)C(N)=O (stereo unspecified)
14,113,CCCCSc1nc(=O)[nH]cc1F
15,214 to 215,CC(C)Oc1ccc(OCc2ccccc2)cc1-c1nc2ccc(C#N)nc2[nH]1
16,198 to 200,CC(=O)c1ccc(N2CCN(Cc3n[nH]c4ccccc34)CC2)cc1
17,215 to 217,O=C(c1ccncc1)[N+]1([O-])CCC(C(O)(c2ccc(Cl)cc2)c2nccs2)CC1 (stereo unspecified)
18,173 to 174,CC(C)c1nccn1-c1nc(-c2ccc(Cl)cc2)c(CCC(=O)O)o1
19,170,Cc1cc(C)c2nc(NCCCO)n(Cc3nc(C)ccc3O)c2c1
20,193 to 195,COc1ccc([N+](=O)[O-])c(CCc2cc(OC)ccc2[N+](=O)[O-])c1
21,188,CN(C)c1ccccc1CC(=N)N1C[C@@H]2C(=O)CCC(c3ccccc3)(c3ccccc3)[C@@H]2C1
22,131 to 132,O=C(Nc1c(Cl)cncc1Cl)c1cc(OC2CCCC2)c(OC(F)F)cn1
23,105 to 108,CC#CCn1c(Cl)nc2c1c(=O)n(C)c(=O)n2C
24,180 to 182,CCCCCc1c(C(C)(C)O)nc(C(C)C)c(CO)c1-c1ccc(F)cc1
